Reference: paper PMC2913153 (Journal of the American Chemical Society, 2010)

How the values were obtained:
FPR-negative U937 cells = assay: Chemotaxis of FPR-negative U937 cells; type: cell-based; conditions: result in words
FPR = conditions: compared with fMLF; result in words; ref [13]; cited from earlier work

**Q.** Which results are given for “N-formyl-norleucine-leucine-phenylalanine [Compound 1]”?
**A.** chemotactic activity in FPR-negative U937 cells (FPR-negative U937 cells): None of the compounds induce chemotactic activity; chemoattractant potency relative to fMLF (FPR): less potent than fMLF
